Laboratory results reported in US20060228419A1, “Solvent-free process for preparation of hydrophilic dispersions of nanoparticles of inclusion complexes” (SoluBest Ltd., priority 2005, published 2006).

Molecular target: T1, hyaluronidase (Bos taurus, UniProt Q2YDK3)
T1 construct: purchased Sigma H 3506; host or cells: bovine testes (natural source)
T1 sequence (Q2YDK3 36-553): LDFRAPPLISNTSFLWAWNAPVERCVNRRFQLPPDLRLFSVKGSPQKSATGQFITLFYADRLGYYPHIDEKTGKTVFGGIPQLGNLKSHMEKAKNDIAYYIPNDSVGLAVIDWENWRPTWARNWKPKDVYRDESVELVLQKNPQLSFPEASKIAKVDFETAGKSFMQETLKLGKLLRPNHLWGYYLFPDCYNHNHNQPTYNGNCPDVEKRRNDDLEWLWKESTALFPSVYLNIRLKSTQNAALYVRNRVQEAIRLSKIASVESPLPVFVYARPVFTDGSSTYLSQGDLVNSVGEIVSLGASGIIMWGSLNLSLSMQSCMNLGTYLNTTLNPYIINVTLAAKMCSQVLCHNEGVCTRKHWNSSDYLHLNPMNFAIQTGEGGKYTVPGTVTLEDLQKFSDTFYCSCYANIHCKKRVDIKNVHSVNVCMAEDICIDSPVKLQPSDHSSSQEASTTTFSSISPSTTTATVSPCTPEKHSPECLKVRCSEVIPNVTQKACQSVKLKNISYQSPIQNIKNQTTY
Test: Stability in the presence of hyaluronidase (decrease of viscosity)
Assay type: in vitro ADME, bovine
Method: The stability of Solu-NaHA in the presence of the enzyme specific for hyaluronic acid, hyaluronidase (Sigma, H 3506, Hyaluronidase lyophilized (EC 3.2.1.35) Type I-S, from bovine testes, 608 U/mg solid) was measured by the decrease of the viscosity in time in comparison to blank. The degree of stability (protection against action of hyaluronidase) is defined as a decrease in the viscosity of the NaHA solution upon addition of the enzyme (dose of enzyme—10 U/ml). The control used was 0.1% solution of NaHA without the wrapping polymer (blank). Samples were maintained on a water bath at temperature 37° C. during 5 hrs. Sample made by Visco Star Plus. The decrease in viscosity was estimated in percentage to its initial value. The results in FIG. 5 show the stability of Solu-NaHA prepared with polymer A (NaHA with HPS) or with Polymer B (NaHA with B-790) against the action of hyaluronidase, established as 84-100% vs control 58-63%.
The stability of NaHA in the Solu-NaHA in the presence of hyaluronidase was measured by the decrease of the viscosity over time in comparison to blank. The stability of Solu-NaHA against the action of hyaluronidase was 70-90% vs 40-45% in blank (0.5% solution of NaHA).
The degree of stability of NaHA was measured as described in Example 7 above. The control used was 0.5% solution of NaHA without any polymer (blank). Samples were maintained on a water bath at temperature 37° C. during 5 hrs. Measurement of viscosity was made by Visco Star Plus. Decrease in viscosity is estimated in percentage relative to its initial value. It is established, that protection of Solu-NaHA with polymer A (HPS) against action of hyaluronidase gives a viscosity of 67-70% vs the control protection of 20-27%.

| Substance | stability against the action of hyaluronidase (0.1% NaHA, enzyme 10 U/ml, 37° C., up to 5 hrs, viscosity in percentage to initial value) | viscosity under enzyme activity, percentage relative to initial value (0.5% NaHA, 37° C., 5 hrs) | stability against the action of hyaluronidase (0.5% NaHA, viscosity over time versus blank (FIG. 6)) |
| --- | --- | --- | --- |
| sodium hyaluronate [0.1% solution of NaHA] | 58-63% |  |  |
| sodium hyaluronate [0.5% solution of NaHA] |  | 20-27% | 40-45% |
